This note sets out measurements from PubChem BioAssay (NCI).

Structures are written as SMILES.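 Each compound was tested at five concentrations against cells in 96-well plates for 48 hours. At the GI50, growth is halved. TGI is the concentration that stops growth completely.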

Some test systems named below: ACHN renal; CCRF-CEM leukemia; HCC-2998 colon; RPMI-8226 leukemia; M14 melanoma; K-562 leukemia; RXF 393 renal; A549 NSCLC; BT-549 breast; PC-3 prostate.
Common to all, as to assay: NCI-60 cell line screen, 48 h

As to `CCOC(=O)C(=O)Nc1ccc(Cl)c(C(F)(F)F)c1`, the TGI with ACHN renal, in the assay on CCRF-CEM leukemia, in the assay with HCC-2998 colon, with RPMI-8226 leukemia, in the assay with M14 melanoma and in the assay on K-562 leukemia was more than 100 µM each time. The TGI in the assay with RXF 393 renal and in the assay on A549 NSCLC was more than 100 µM throughout.

For `COc1ccc2c(c1)CCCC1C3=NCCC3(C)CSC21` (stereo unspecified), the TGI in the assay on CCRF-CEM leukemia, in the assay on RPMI-8226 leukemia, with M14 melanoma, with K-562 leukemia, with RXF 393 renal and with A549 NSCLC was more than 100 µM in each case.

As to `CCOC(=O)c1cnc2cc3cccccc3n2c1=O`, the TGI with ACHN renal, in the assay on CCRF-CEM leukemia, in the assay with HCC-2998 colon, in the assay with RPMI-8226 leukemia, in the assay on M14 melanoma and with K-562 leukemia was more than 100 µM throughout. Further, the TGI in the assay with RXF 393 renal and with A549 NSCLC was more than 100 µM in each case.

Consider `CCCCCCCCCCCCCCCCn1cc[n+](Cc2ccccc2)c1C`, for which the GI50 is 1.89 µM with ACHN renal; 0.401 µM with CCRF-CEM leukemia; 0.413 µM with HCC-2998 colon; 0.104 µM with RPMI-8226 leukemia; 0.425 µM in the assay with M14 melanoma; 0.0122 µM with RXF 393 renal. Besides, the GI50 with A549 NSCLC was 1.15 µM. Further, the TGI in the assay on ACHN renal is 7 µM; in the assay with CCRF-CEM leukemia, 2.48 µM; with HCC-2998 colon, 1.64 µM; in the assay on RPMI-8226 leukemia, 0.444 µM; in the assay with M14 melanoma, 1.91 µM; with RXF 393 renal it was 0.341 µM. In the assay on A549 NSCLC, this molecule had a TGI of 2.57 µM.

On to `CCOC(=O)C1=C(c2ccccc2)N(c2ccc(OC)cc2)[C@]2(C#N)C(O)=C(Cl)C(Cl)=C(O)[C@]12C#N`, for which the GI50 with ACHN renal is 19.7 µM; in the assay with BT-549 breast it was 24.2 µM; with CCRF-CEM leukemia, 10.1 µM; in the assay with RPMI-8226 leukemia, 1.97 µM; in the assay with M14 melanoma, 20.9 µM; in the assay on K-562 leukemia, 17.6 µM. Besides, the results for the GI50 in the assay with RXF 393 renal and in the assay on A549 NSCLC were 17.4 µM and 69.1 µM, respectively. The TGI in the assay with ACHN renal was 42.1 µM; in the assay with BT-549 breast it was 56.4 µM; in the assay on CCRF-CEM leukemia, 23.6 µM; in the assay with RPMI-8226 leukemia it was 18 µM; with M14 melanoma, 41.3 µM; in the assay on K-562 leukemia it was 34.6 µM. Besides, the TGI in the assay on RXF 393 renal is 31.5 µM; with A549 NSCLC, more than 100 µM.

Consider `O=C(O)c1ccc(C2C3C=CC(C3)C2[N+](=O)[O-])cc1` (stereo unspecified), for which the TGI with CCRF-CEM leukemia, in the assay on HCC-2998 colon, in the assay on RPMI-8226 leukemia, in the assay on M14 melanoma, in the assay on K-562 leukemia and in the assay on RXF 393 renal was more than 100 µM each time. This molecule also came in with a TGI with A549 NSCLC of more than 100 µM.

In the case of `Clc1cc(Cl)cc(Nc2nc3ccccc3nc2-c2cccs2)c1`, the TGI in the assay with ACHN renal is 60.3 µM; with CCRF-CEM leukemia it was more than 100 µM; in the assay on HCC-2998 colon it was more than 100 µM; in the assay on RPMI-8226 leukemia, more than 100 µM; in the assay on RXF 393 renal it was 39.9 µM; with A549 NSCLC, more than 100 µM.

Take `OCc1ccc(Oc2c3ccccc3nc3occc23)cc1`: the GI50 was 31.3 µM in the assay with CCRF-CEM leukemia; 20.7 µM in the assay on RPMI-8226 leukemia; 23.8 µM with M14 melanoma; 30.9 µM in the assay on K-562 leukemia; 4.7 µM with RXF 393 renal; 36.5 µM with A549 NSCLC. Besides, in the assay on PC-3 prostate, the GI50 is 31.8 µM. For the same molecule, the TGI with CCRF-CEM leukemia is more than 100 µM; in the assay on RPMI-8226 leukemia, 65.5 µM; in the assay with M14 melanoma it was 57.6 µM; in the assay on K-562 leukemia, more than 100 µM; in the assay on RXF 393 renal it was 23.2 µM; with A549 NSCLC, more than 100 µM. In addition, the TGI in the assay on PC-3 prostate was more than 100 µM.

In the case of `CC1=CC2CC(C)C1(C)CCc1ccoc12` (stereo unspecified), the TGI in the assay on ACHN renal, in the assay with CCRF-CEM leukemia, in the assay on HCC-2998 colon, in the assay with RPMI-8226 leukemia, in the assay on M14 melanoma and in the assay with K-562 leukemia was more than 100 µM throughout. Further, the TGI in the assay with RXF 393 renal and in the assay on A549 NSCLC was more than 100 µM throughout.

Consider `Cc1cc2c(cc1Br)C1(C)CCC(C)C1(C)O2` (stereo unspecified), for which the TGI in the assay on ACHN renal was more than 100 µM; with CCRF-CEM leukemia, 56.1 µM; in the assay on HCC-2998 colon, more than 100 µM; in the assay with RPMI-8226 leukemia, 33.2 µM; in the assay with M14 melanoma, more than 100 µM; in the assay on K-562 leukemia it was 37.6 µM. Moreover, the TGI with RXF 393 renal was 32.1 µM; in the assay with A549 NSCLC, more than 100 µM.

For the molecule `COc1ccc(C(O)/C(=C/n2ccnc2)c2ccccc2)cc1OC` (stereo unspecified), the TGI with ACHN renal, with CCRF-CEM leukemia, with HCC-2998 colon, in the assay on RPMI-8226 leukemia, with M14 melanoma and in the assay on K-562 leukemia was more than 100 µM each time. In addition, the TGI in the assay with RXF 393 renal and in the assay with A549 NSCLC was more than 100 µM throughout.

With `CCOC(=O)[C@H]1Nc2ccc(Cl)cc2[C@H]2c3ccccc3O[C@H]21`, the TGI in the assay with ACHN renal, with HCC-2998 colon, in the assay with RPMI-8226 leukemia, in the assay on M14 melanoma, in the assay on K-562 leukemia and in the assay on RXF 393 renal was more than 100 µM throughout. Besides, the TGI in the assay on A549 NSCLC is more than 100 µM.

Take `CN(CCN(C)C(=O)CCOS(C)(=O)=O)C(=O)CCOS(C)(=O)=O`: the TGI in the assay with ACHN renal, in the assay with CCRF-CEM leukemia, in the assay with HCC-2998 colon, with RPMI-8226 leukemia, in the assay with M14 melanoma and with K-562 leukemia was more than 100 µM in each case. The TGI with A549 NSCLC is more than 100 µM.

For the molecule `Cn1c(=O)oc2cc(C3CCC(=O)N3Cc3ccc(Cl)cc3)ccc21` (stereo unspecified), the TGI in the assay on ACHN renal, in the assay with CCRF-CEM leukemia, in the assay with HCC-2998 colon, in the assay on RPMI-8226 leukemia, in the assay with M14 melanoma and in the assay on K-562 leukemia was more than 100 µM in each case. Further, the TGI in the assay with RXF 393 renal and in the assay with A549 NSCLC was more than 100 µM in each case.

As to `COc1cc2c(c(OC)c1OC)-c1ccc(SC)c(=O)cc1C(CC(=O)Oc1cccc(C#N)c1)C2` (stereo unspecified), the TGI is more than 100 µM in the assay on ACHN renal; 5.33 µM in the assay with CCRF-CEM leukemia; 1.59 µM with HCC-2998 colon; 21.9 µM with RPMI-8226 leukemia; more than 88.8 µM in the assay with M14 melanoma; more than 100 µM in the assay on A549 NSCLC.
